Test results as given in paper PMC10040380 (Cell Reports Medicine, 2023).

Molecular target: T1, KCC2 (Homo sapiens, UniProt Q9H2X9)
T1 sequence (Q9H2X9 1-1116 isoform Q9H2X9-2): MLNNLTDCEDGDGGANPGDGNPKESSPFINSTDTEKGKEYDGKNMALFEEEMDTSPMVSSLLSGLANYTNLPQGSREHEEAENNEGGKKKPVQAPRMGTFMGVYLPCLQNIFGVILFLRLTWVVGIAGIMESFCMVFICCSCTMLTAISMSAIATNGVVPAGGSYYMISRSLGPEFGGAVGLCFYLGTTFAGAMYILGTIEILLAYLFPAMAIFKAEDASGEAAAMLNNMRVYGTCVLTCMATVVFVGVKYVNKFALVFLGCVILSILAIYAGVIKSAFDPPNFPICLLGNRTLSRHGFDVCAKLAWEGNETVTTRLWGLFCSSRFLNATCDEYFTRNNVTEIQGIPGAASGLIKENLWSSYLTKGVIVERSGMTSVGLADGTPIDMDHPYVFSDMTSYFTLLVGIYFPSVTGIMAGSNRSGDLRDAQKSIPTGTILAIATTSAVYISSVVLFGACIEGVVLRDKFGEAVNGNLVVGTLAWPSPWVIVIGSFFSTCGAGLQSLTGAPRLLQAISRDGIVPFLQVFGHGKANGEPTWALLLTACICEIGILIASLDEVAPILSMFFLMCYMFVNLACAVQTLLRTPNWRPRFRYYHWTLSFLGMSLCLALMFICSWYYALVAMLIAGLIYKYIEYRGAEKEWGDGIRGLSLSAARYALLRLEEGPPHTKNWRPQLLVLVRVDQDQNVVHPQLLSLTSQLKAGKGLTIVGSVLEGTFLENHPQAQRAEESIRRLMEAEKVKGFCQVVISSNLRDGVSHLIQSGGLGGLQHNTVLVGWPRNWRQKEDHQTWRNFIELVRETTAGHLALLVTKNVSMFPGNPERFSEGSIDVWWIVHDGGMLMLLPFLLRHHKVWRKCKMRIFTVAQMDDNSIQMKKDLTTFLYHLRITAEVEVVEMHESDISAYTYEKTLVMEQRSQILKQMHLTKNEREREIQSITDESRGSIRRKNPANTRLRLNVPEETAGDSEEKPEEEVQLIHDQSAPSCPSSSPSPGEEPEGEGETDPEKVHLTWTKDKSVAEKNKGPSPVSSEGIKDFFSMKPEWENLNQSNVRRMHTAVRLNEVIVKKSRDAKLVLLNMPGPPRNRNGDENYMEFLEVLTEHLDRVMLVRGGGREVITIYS
Experiment: Tl influx FLIPR assay in HEK-293 cells expressing KCC2
Assay type: cell-based

EC50: 261 ± 22.2 nM
Substance: OV350 [compound 350]
